{
  "source": "patent US20240082255A1",
  "about": "(Board of Regents, The University of Texas System, priority 2017, published 2024)",
  "key": {"IL-10": {"tested_on": "IL-10", "details": "Mukherjee et al., 2014; cited from earlier work"}, "MDA-MB-231 cells [1]": {"tested_on": "MDA-MB-231 cells", "experiment": "transwell migration assay", "assay_type": "cell-based", "details": "MDA-MB-231, 20 μM for 48 hrs"}, "MDA-MB-468 cells": {"tested_on": "MDA-MB-468 cells", "experiment": "alamar Blue cell viability assay", "assay_type": "cell-based", "details": "MDA-MB-468, imipramine 5-100 μM, 96 hours", "description": "(§1) The data shown are mean±SEM. *, P<0.05; **, P<0.01; ***, P<0.001; ****, P<0.0001 versus control group, t-test.\n(§2) Cell viability was assessed using alamar Blue cell viability assay."}, "MDA-MB-231 cells [2]": {"tested_on": "MDA-MB-231 cells", "experiment": "alamar Blue cell viability assay", "assay_type": "cell-based", "details": "MDA-MB-231, imipramine 5-100 μM, 96 hours", "description": "as §1, §2"}, "MDA-MB-231 cells [3]": {"tested_on": "MDA-MB-231 cells", "experiment": "RNA seq gene expression profiling", "assay_type": "cell-based", "details": "96 hours", "description": "RNA samples were further processed for gene expression profiling using Illumina HiSeq 2000 following manufacturer's standard protocol (Illumina, San Diego, CA). Differential expression analysis was performed by using DEseq, and significant genes with at least 1.5-fold change with p<0.05 were chosen for analysis. Using all significant and differentially expressed genes from the RNA-seq data, Ingenuity Pathway Analysis software (IPA) was used to interpret the biological pathways. Total protein extracted from cell lines were subjected to western blot analysis."}, "[4]": {"tested_on": "MDA-MB-231 cells implanted into the mammary fat pad", "details": "16 escalated to 20 or 32 escalated to 40 mg/kg body weight, ip daily for thirty days", "description": "MDA-MB-231 cells were implanted into the mammary fat pad of athymic nude mice. […] After the 30th day, the mice were euthanized, and the tumors were isolated and processed for molecular and immunohistologic studies. Tumor volume was calculated by using the formula 0.5236L1 (L2)^2, where L1 is long axis and L2 is the short axis of the tumor."}, "IL-12": {"tested_on": "IL-12", "details": "Mukherjee et al., 2014; cited from earlier work"}, "MDA-MB-231 cells [5]": {"tested_on": "MDA-MB-231 cells", "experiment": "transwell invasion assay", "assay_type": "cell-based", "details": "MDA-MB-231, 20 μM for 48 hrs"}, "[6]": {"tested_on": "MDA-MB-231-GFP-luc cells implanted into the mammary fat pad", "experiment": "orthotopic xenograft study, imipramine and olaparib", "assay_type": "in vivo, athymic nude mice", "details": "weeks 4 and 5; imipramine 40 mg/kg or olaparib 50 mg/kg body weight", "description": "To evaluate whether imipramine can sensitize the response to olaparib treatment, an orthotopic xenograft study was performed. […] Mice were treated for 4 weeks starting week 1 after tumor implantation. Tumor volumes were measured twice a week."}},
  "note": "Entries after “also recorded” stand apart in the source; their conditions may differ.",
  "data": [
    {"smiles": "CN(C)CCCN1c2ccccc2CCc2ccccc21", "note": "[imipramine]", "values": [
      {"measurement": "effect on IL-10", "setting": "IL-10", "value": "inhibit"},
      {"measurement": "migration of breast cancer cells compared with vehicle control", "setting": "MDA-MB-231 cells [1]", "value": "reduction"},
      {"measurement": "viability of breast cancer cells compared to vehicle-treated cells", "setting": "MDA-MB-468 cells", "value": "significantly reduced viability"},
      {"measurement": "viability of breast cancer cells compared to vehicle-treated cells", "setting": "MDA-MB-231 cells [2]", "value": "significantly reduced viability"},
      {"measurement": "expression of cell cycle and DNA repair genes FOXM1, CyclinD1, PLK1, SKP2, XRCC3 and RAD51", "setting": "MDA-MB-231 cells [3]", "value": "reduced expression"},
      {"measurement": "tumor growth (mean tumor volume) compared to vehicle control", "setting": "[4]", "value": "significantly reduced"},
      {"measurement": "tumor size compared to vehicle control", "setting": "[4]", "value": "significantly reduced"},
      {"measurement": "tumor weight compared to vehicle control", "setting": "[4]", "value": "reduced tumor weight in a dose dependent manner; also recorded: significantly reduced"},
      {"measurement": "effect on levels of IL-12", "setting": "IL-12", "value": "elevate"},
      {"measurement": "invasion of breast cancer cells compared with vehicle control", "setting": "MDA-MB-231 cells [5]", "value": "reduction"},
      {"measurement": "difference in tumor growth, control vs single agent", "setting": "[6]", "value": "significant difference"}
    ]},
    {"smiles": "O=C(c1cc(Cc2n[nH]c(=O)c3ccccc23)ccc1F)N1CCN(C(=O)C2CC2)CC1", "note": "[olaparib]", "values": [
      {"measurement": "difference in tumor growth, control vs single agent", "setting": "[6]", "value": "significant difference"}
    ]}
  ]
}
